In PMC9743090, “Induction of Ferroptosis in Glioblastoma and Ovarian Cancers by a New Pyrrole Tubulin Assembly Inhibitor” (Journal of Medicinal Chemistry, 2022):
Several values for one entry are separate records, joined by “and”; a condition that tells them apart may be missing. Equal entries are not always repeated.

Experiments:
[1] = Metabolic stability in human liver microsomes; format: in vitro ADME
Method: (§1) Mouse (Sigma Aldrich, CD-1 male, pooled) and human microsomes (Sigma Aldrich, human, pooled) at 0.5 mg/mL were preincubated with the test compound 15 dissolved in DMSO at 1 μM in phosphate buffer 50 mM, pH 7.4, and 3 mM MgCl2 for 10 min at 37 °C. The reaction was then started by adding the cofactor mixture solution (NADP, glucose-6-phosphate, glucose-6-phosphate dehydrogenase in 2% NaHCO3). Samples were taken at 0, 10, 30, 45, and 60 min and added to acetonitrile to stop the reaction. Samples were then centrifuged, and the supernatant was analyzed by LC–MS/MS to quantify the amount of the compound. A control sample without the cofactor was always added to check the chemical stability of the test compound. […] A fixed concentration of verapamil was added in every sample as an internal standard for LC–MS/MS analyses. The percentage of the area of the test compound remaining at the various incubation times was calculated with respect to the area of the compound at time 0 min.
(§2) The rate constant, k (min^–1), derived for the exponential decay equation (peak area/IS vs time), was used to calculate the rate of Cli.
(§3) Samples were analyzed under the following conditions: UPLC Waters coupled with an API 3200 triple-quadrupole (ABSciex); eluents, (phase A) 95% water, 5% acetonitrile + 0.1% HCOOH, (phase B) 5% water, 95% acetonitrile + 0.1% HCOOH; flow rate, 0.3 mL/min; column, Gemini-Nx 5 μm C18 110A (50 × 2.00 mm) at 35 °C; injection volume, 10 μL. Source conditions ESI positive: T 400 °C, Gas 1 30, Gas 2 35, CUR 30, IS 5500, CAD 5.

[2] = system: U-87 MG GBM cells; assay: U-87 MG proliferation assay (cell count, Trypan Blue); format: cell-based; settings: Homo sapiens, 48 h incubation, read-out: IC50 cell viability U-87 MG
Method: (§4) The methodology for the evaluation of the growth of human MCF-7 breast carcinoma cells was previously described, except that cells were grown for 96 h for IC50 determinations.[66] U-87 MG and OVCAR-3 proliferation assays were performed plating 10^4 cells/cm^2 in a Multiwell 24. The day after, cells were treated with compound 15, and DMSO was used as a control. Cells were counted 48 h later with a Bürker counting chamber, after dilution in TrypanBlue (#T6146 Sigma-Aldrich).
(§5) All experiments were performed multiple times to reach statistical significance, as specified in the figure legends. Statistical analysis was performed using GraphPad Prism version 7.0 for Mac. IC50 values were calculated by using a nonlinear regression formula, using the percentage of cells number and the logarithmic value of drug concentrations. Data were analyzed with analysis of variance (one-way ANOVA test). Data with *p < 0.05 were considered statistically significant.

[3] = system: MCF-7 human breast carcinoma cells; assay: Inhibition of the growth of MCF-7 human breast carcinoma cells; format: cell-based
Method: as §4

[4] = system: PARP cleavage in OVCAR-3 cells; assay: PARP cleavage by western blot in OVCAR-3 cells; format: cell-based, human; settings: immunoblotting
Method: (§6) Western blotting was performed as previously described[68] by lysing cells in denaturing buffer sodium dodecyl sulfate (SDS)–urea. Extracts were sonicated, their protein quantified, and aliquots were loaded into an SDS–polyacrylamide gel. After electrophoresis, the proteins in the gel were transferred onto a nitrocellulose membrane (cat. no. NBA085C001EA, PerkinElmer), which then was blocked with 5% milk in TBS-T (Tris HCl with 0.1% Tween 20) and incubated with primary antibodies overnight: PARP antibody diluted 1:1000 (cat. no. 9542S CST) and actin antibody diluted 1:10,000 (cat. no. A5441, Sigma Aldrich). The next day, the membrane was extensively washed with TBS-T and incubated with horse radish peroxidase (HRP)-conjugated secondary antibodies diluted in the 5% milk solution. Detection of the HRP signal was performed using ECL (cat. no. K-12045-D50, Advansta).

[5] = system: PARP cleavage in U-87 MG cells; assay: PARP cleavage by western blot in U-87 MG cells; format: cell-based, human; settings: immunoblotting
Method: as §6

[6] = system: tubulin; assay: Inhibition of tubulin polymerization (assembly assay); format: biochemical; settings: tubulin at 10 μM, read-out: Tubulin IC50 ± SD
Method: (§7) The assembly reaction mixtures contained 0.8 M monosodium glutamate (pH 6.6 with HCl in a 2 M stock solution), 10 μM tubulin, 4% (v/v) DMSO, and varying concentrations of the drug. Following a 15 min preincubation at 30 °C, samples were chilled on ice, GTP to 0.4 mM was added, and turbidity development was followed at 350 nm in a temperature-controlled recording spectrophotometer for 20 min at 30 °C. The extent of reaction was measured. Full experimental details were previously described.[63] For the colchicine binding assay, reaction mixtures contained 1.0 μM tubulin, 5.0 μM [^3H]colchicine, and 5.0 or 1.0 μM inhibitor and were incubated for 10 min at 37 °C. Complete details were described previously.[64]

[7] = Metabolic stability in mouse liver microsomes; format: in vitro ADME
Method: as §1, §2, §3

[8] = system: tubulin; assay: Inhibition of [3H]colchicine binding to tubulin; settings: inhibitor at 1:5:5 μM
Method: as §7

[9] = system: OVCAR-3 OC cells; assay: OVCAR-3 proliferation assay (cell count, Trypan Blue); format: cell-based; settings: Homo sapiens, 48 h incubation, read-out: IC50 cell viability OVCAR-3
Method: as §4, §5

In the case of `COc1cc(C(=O)c2cn(-c3ncccn3)cc2-c2ccco2)cc(OC)c1OC` [Compound 15, (4-(Furan-2-yl)-1-(pyrimidyl-2-yl)-1H-pyrrol-3-yl)(3,4,5-trimethoxyphenyl)methanone], the “Cli ± SD” value ([1]; HLM 0.5 mg/mL, 1 μM, n = 2) is reported as 36 μL/min/mg protein and 35.9 ± 0.2 μL/min/mg protein, the half-life at 1 h, 1 µM ([1]; human, liver microsomes, pH 7.4, HLM 0.5 mg/mL, 1 μM, n = 2, read-out: t1/2 ± SD) is reported as 38.7 ± 0.2 min and the microsomal CLint at 1 μM ([1]; pH 7.4, human liver microsomes, read-out: intrinsic clearance classification) is reported as 1.8 to 48 µL/min/mg. The IC50 [2] was 10.1 nM, the “Inhibition of MCF-7 cell growth (in words)” value [3] was “strong inhibition” and the IC50 ([3]; Homo sapiens, MCF7, inhibition of cell growth, cells grown for 96 h, read-out: MCF-7 IC50 ± SD) was 4 ± 1 nM. The “concentration from which cleaved PARP increases” value [4] was at least 5 nM, the “concentration from which PARP cleavage occurs” value [5] was at least 20 nM and the IC50 [6] was 520 ± 70 nM. The “Cli ± SD” value ([7]; MLM 0.5 mg/mL, 1 μM, n = 2) was 461 μL/min/mg protein and 461.1 ± 45.5 μL/min/mg protein, the half-life at 1 h, 1 µM ([7]; male, CD-1, mouse, liver microsomes, pH 7.4, MLM 0.5 mg/mL, 1 μM, n = 2, read-out: t1/2 ± SD) was 3 ± 0.3 min and the microsomal CLint at 1 μM ([7]; male, CD-1, pH 7.4, mouse liver microsomes, read-out: intrinsic clearance classification) was over 66 µL/min/mg. The “Inhib. colch. binding 1-5-5 (% ± SD)” value [8] was 88 ± 0.4% and the IC50 [9] was 2.85 nM.
